Data on five molecules can be found in patent publication US20090196833A1, “COMPOSITIONS COMPRISING TOPICAL DPD INHIBITORS AND METHODS OF USING SAME IN THE TREATMENT OF HAND-FOOT SYNDROME” (ADHEREX TECHNOLOGIES INC., priority 2008, published 2009).

Where two headings read alike, the source gives them in different places. Where only a bound is given, the exact number is not on record here.

Series [1] in a line: 5-FU pharmacokinetics in pigs with topical eniluracil (Example 6). The format is in vivo. The note with it: pig, plasma, 6 mg/kg, 5-FU 6 mg/kg bolus, read-out: 5-FU Half-Life, Mean (SD). On the procedure: (§1) This study was carried out to determine the plasma pharmacokinetics of eniluracil (EU) after topical administration and to evaluate the effect of topical eniluracil application on 5-FU pharmacokinetics, peripheral blood mononuclear cell (PBMC) dihydropyrimidine dehydrogenase (DPD) function, and levels of DPD activity in the skin in vivo. Eniluracil (0.005% and 0.01% w/w) formulated using Aquaphor® was applied topically (617 mg to a designated area) for 5 minutes every other day for 16 days starting on Day-2. 5-Fluorouracil was administered as a 6 mg/kg bolus injection on Day-3, Day 0 and Day 14. Samples were collected at predetermined time intervals to evaluate 5-fluorouracil pharmacokinetics, eniluracil pharmacokinetics, skin DPD activity and systemic DPD activity.
(§2) A baseline 5-FU pharmacokinetic study was conducted on Day-3 by collecting serial blood samples after 5-FU administration. […] The total ointment applied was […]. The area of application in the pig ([…]=0.0040 m^2) was selected based on feasibility and scale to the proposed human use using the following figures: the surface area of one palm and one sole combined in a human is 2% of the total body surface area, the average total body surface area in a pig is 0.40 m^2. Thus, in terms of total eniluracil in mg/m^2 applied to pigs was 0.154 for 0.01% and 0.077 for 0.005%. The duration of application was 5 minutes, which was determined based data obtained from a pilot study. In this study, higher doses of topical eniluracil (5 gms of 0.01%, 0.05% and 0.01% w/w) and placebo were applied on the skin and skin biopsies were collected after predefined time intervals. These samples were then analyzed for DPD activity.
(§3) Ointment exposure time was 5 minutes every other day for 16 days. Eniluracil treated animals also received 617 mg of placebo at a site different from the treatment site. Eniluracil pharmacokinetics were analyzed from the serial blood samples drawn on first day of the 5-FU and eniluracil treatment (Day 0) and on Day 14. In addition, eniluracil concentrations were evaluated in all samples obtained for 5-FU pharmacokinetics, as shown above. 5-FU pharmacokinetics were evaluated from 11 serial blood samples drawn after the IV bolus administration of 5-FU on Day-3, Day 0 and Day 14. On 5-FU treatment days, eniluracil administration was conducted first (5 min) followed by 5-FU at the 6 minute time point. Blood samples were collected for plasma EU analyses prior to topical administration and at 2 min and 5 min (end of topical exposure). Blood samples were collected for both EU and 5-FU analyses immediately prior to 5-FU administration and at the following times from the IV bolus: 2, 5, 10, 15, 30, 45, 60, 90 120, and 180 min. Determinations of eniluracil and 5-fluorouracil plasma pharmacokinetics were made. The effect on the local DPD activity and the effect of topical eniluracil on systemic DPD activity were assessed by collecting skin biopsies from both the treatment site and the placebo site, and peripheral blood mononuclear cells (PBMCs) on day-2 and on day 12. DPD activity in PBMCs was also measured on Day 17 and Day 19, to investigate the time to recovery if there was any systemic inhibition of DPD.
In terms of statistical considerations, the study was designed with 4 pigs to a treatment group in order to have 80% power for observation of at least a 40% difference in 5-FU systemic exposure between measurements conducted on day-3 (no eniluracil) to day 14 (on eniluracil every other day since day-2) at each of the two dosing levels (4 animals per dose level). These evaluations were conducted using matched, paired T Tests and Wilcoxon tests. In addition, day 14 data were compared between the treatment vs. control groups using the Kiruskal-Wallis test. […]

A short description of series [2]: pH of test article in the EpiDerm studies. In kind it is physicochemical.
Series [3] relates to EpiDerm™ skin model (normal, human-derived epidermal keratinocytes (NHEK)). The series is described as follows: EpiDerm skin model MTT conversion assay (ET50, dermal irritation). The format is cell-based. The note with it: for ET50: exposure times 8, 20, 24 hours. An excerpt: The EpiDerm™ skin model system (MatTek) was used to assess the potential dermal irritation of eniluracil alone or its formulation. This system consists of normal, human-derived epidermal keratinocytes (NHEK) which have been cultured to form a multilayered, highly differentiated model of the human epidermis. […] The EpiDerm™ system is mitotically and metabolically active. Markers of mature epidermis-specific differentiation such as pro-filaggrin, the K1/K10 cytokeratin pair, involucrin, and type I epidermal transglutaminase have been localized in the model. […] Eniluracil was prepared and administered to the test system at the three final concentrations of 1000 μM, 500 μM, and 100 μM, and tested at three exposure times of 8, 20, and 24 hours. The DMSO solvent control was tested at exposure times of 8 and 24 hours. The negative control was tested at exposure times of 4 and 24 hours, and the positive control was tested at exposure times of 4 and 8 hours. […] Hydrochloric acid in an amount equivalent to the sodium hydroxide was added to neutralize the ointment. The exposure time control was also exposed in duplicate for 4 and 24 hours. Table 2 below summarizes the ET50 results of the EpiDerm™ assay for the test articles and the positive control, using the negative control results to determine the relative viability.
A general note: Formazan colour is commonly taken as a measure of viable cells.

Series [4] can be described thus: Plasma eniluracil after topical administration in pigs (Example 6). In kind it is in vivo. On the procedure: as §1, §2
as §3, with “On 5-FU treatment days, eniluracil administration was conducted first (5 min) followed by 5-FU at the 6 minute time point. Blood samples were collected for plasma EU analyses prior to topical administration and at 2 min and 5 min (end of topical exposure). Blood samples were collected for both EU and 5-FU analyses immediately prior to 5-FU administration and at the following times from the IV bolus: 2, 5, 10, 15, 30, 45, 60, 90 120, and 180 min. Determinations of eniluracil and 5-fluorouracil plasma pharmacokinetics were made.” left out

The target in series [5] is T1, dihydropyrimidine dehydrogenase (DPD) (Sus scrofa, UniProt Q28943).
T1 construct: the supernatant (cytosolic fraction) was collected for use as the enzyme source; from tissue; host or cells: pig skin biopsies after topical dosing in vivo
T1 sequence (Q28943 4-1025): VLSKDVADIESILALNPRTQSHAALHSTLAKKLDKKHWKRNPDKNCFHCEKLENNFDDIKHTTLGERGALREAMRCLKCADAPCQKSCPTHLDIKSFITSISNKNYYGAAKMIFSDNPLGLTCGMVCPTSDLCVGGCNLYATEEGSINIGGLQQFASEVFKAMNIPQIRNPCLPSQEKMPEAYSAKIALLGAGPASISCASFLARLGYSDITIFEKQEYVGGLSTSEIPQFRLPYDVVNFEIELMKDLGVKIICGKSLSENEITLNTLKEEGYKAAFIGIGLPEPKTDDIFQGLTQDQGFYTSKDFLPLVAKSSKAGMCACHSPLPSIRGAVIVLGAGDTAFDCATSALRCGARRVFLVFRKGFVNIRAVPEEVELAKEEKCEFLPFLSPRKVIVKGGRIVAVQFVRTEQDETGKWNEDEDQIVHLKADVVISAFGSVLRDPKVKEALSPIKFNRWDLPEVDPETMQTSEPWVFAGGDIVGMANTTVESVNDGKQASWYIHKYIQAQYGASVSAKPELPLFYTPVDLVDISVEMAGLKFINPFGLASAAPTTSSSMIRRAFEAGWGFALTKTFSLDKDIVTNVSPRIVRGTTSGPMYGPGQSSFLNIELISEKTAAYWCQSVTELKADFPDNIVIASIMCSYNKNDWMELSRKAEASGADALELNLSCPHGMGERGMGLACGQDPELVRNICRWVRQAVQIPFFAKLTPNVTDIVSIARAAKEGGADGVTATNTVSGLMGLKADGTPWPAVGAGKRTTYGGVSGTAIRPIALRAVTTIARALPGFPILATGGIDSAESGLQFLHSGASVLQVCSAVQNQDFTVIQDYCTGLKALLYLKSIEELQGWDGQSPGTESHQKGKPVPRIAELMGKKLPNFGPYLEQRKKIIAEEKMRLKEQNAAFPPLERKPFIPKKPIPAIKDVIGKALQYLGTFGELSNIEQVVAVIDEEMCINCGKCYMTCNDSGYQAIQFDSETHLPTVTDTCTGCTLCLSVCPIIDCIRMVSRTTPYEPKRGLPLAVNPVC
The series is described as follows: Skin DPD activity in pigs with topical eniluracil (Example 6). The format is in vivo. The note with it: short term topical application at 0.005% or 0.01% w/w. As for the experimental part: as §1, with “Samples were collected at predetermined time intervals to evaluate 5-fluorouracil pharmacokinetics, eniluracil pharmacokinetics, skin DPD activity and systemic DPD activity.” left out
A baseline 5-FU pharmacokinetic study was conducted on Day-3 by collecting serial blood samples after 5-FU administration. […] The duration of application was 5 minutes, which was determined based data obtained from a pilot study. […] These samples were then analyzed for DPD activity.
Ointment exposure time was 5 minutes every other day for 16 days. […] Eniluracil pharmacokinetics were analyzed from the serial blood samples drawn on first day of the 5-FU and eniluracil treatment (Day 0) and on Day 14. In addition, eniluracil concentrations were evaluated in all samples obtained for 5-FU pharmacokinetics, as shown above. 5-FU pharmacokinetics were evaluated from 11 serial blood samples drawn after the IV bolus administration of 5-FU on Day-3, Day 0 and Day 14. […]

The conditions of series [6]: capecitabine at labeled dose; cited from earlier work.
The subject of series [7] is Thymidine phosphorylase (TP). The series is described as follows: Thymidine phosphorylase (TP) enzyme activity in skin sample supernatant. The note with it: concentration of 100 uM; 200 μM capecitabine substrate.
Experimental: Skin samples were suspended in 600 μl of homogenization buffer containing 20 mM potassium phosphate (pH 8.0), 1.5 mM dithiothreitol (DTT), and 5 ul/ml protease inhibitor (Sigma). Samples were homogenized and centrifuged at 36,000 rpm for one hour at 4° C. The supernatants were collected and protein concentration was measured using the Bradford assay (Biorad). Thymidine phosporylase (TP) enzyme activity was determined in an assay mixture containing 20 mM potassium phosphate (pH 8.0), 1 mM DTT, 1 mM EDTA, 2 μM 6-^3H-Capecitabine (Moravek Biochemicals, Brea, Calif.), 200 μM unlabeled Capecitabine, varying concentrations of the inhibitor (100 μM, 10 μM, or 1 μM), and 80 μl of protein (6.0 mg/ml) in a final volume of 160 μl. Reactions were incubated at 37° C. for 30 minutes and then terminated by boiling for four minutes. To facilitate protein precipitation, the reactions were incubated at −80° C. for at least 20 minutes, thawed, and then centrifuged for 10 minutes at 14000 rpm at 4° C. The resulting supernatants were filtered through a 0.2 μm Acrodisc filter (VWR International, West Chester, Pa.) and samples were injected in duplicate (60 μl each) onto a HPLC (Hewlett-Packard 1050, Houston, Tex.) equipped with an automatic injector and on-line radioisotope flow detector (Radiomatic FLO-ONE Beta, Packard Instrument, Meriden, Conn.). […]

As to `O=c1[nH]cc(F)c(=O)[nH]1` [5-FU, 5-Fluorouracil], the half-life in series [1] (iv, Both Doses of eniluracil ointment, Day 0) came to 10.1 min; in series [1] (iv, Both Doses of eniluracil ointment, Day 14) it was 9.77 min; in series [1] (iv, Controls (no ointment), Day 0), 7.56 min; in series [1] (iv, Controls (no ointment), Day 14), 9.74 min; in series [1] (iv, Controls (no ointment), Day −3), 5.51 min; in series [1] (iv, eniluracil ointment Dose 0.005%, Day 0), 6.98 min. Further, the half-life in series [1] (iv, eniluracil ointment Dose 0.005%, Day 14) was determined as 6.7 min; in series [1] (iv, eniluracil ointment Dose 0.01%, Day 0), 13.2 min; in series [1] (iv, eniluracil ointment Dose 0.01%, Day 14), 12.8 min; in series [1] (topical or ocular, Both Doses of eniluracil ointment, Day −3 (no topical eniluracil)), 5.11 min; in series [1] (topical or ocular, eniluracil ointment Dose 0.005% group, Day −3 (no topical eniluracil)) it was 5.44 min; in series [1] (topical or ocular, eniluracil ointment Dose 0.01% group, Day −3 (no topical eniluracil)), 4.78 min.
`C#Cc1c[nH]c(=O)[nH]c1=O` [Eniluracil, eniluracil]: the pH in series [2] (eniluracil 100 uM), in series [2] (eniluracil 500 uM) and in series [2] (eniluracil 1000 uM) was 5 each time. The “tolerability in EpiDerm skin model” value in series [3] (1000, 500 and 100 μM, topical exposures of up to 24 hours) is on record as “well-tolerated”. The ET50 in series [3] (eniluracil 100 uM), in series [3] (eniluracil 500 uM) and in series [3] (eniluracil 1000 uM) was above 24 h throughout. Also, the “plasma EU concentration” value is listed as at most 11 ng/mL in series [4] (221 of the 224 samples, limit of quantitation, topical 0.005% or 0.01% w/w, 5 minutes every other day); 12.81 ng/mL in series [4] (pig 5303, EU dose 0.005%, day 14, 6 min); 11.52 ng/mL in series [4] (pig 5303, EU dose 0.005%, day 14, 11 min); 11.07 ng/mL in series [4] (pig 5303, EU dose 0.005%, day 14, 15 min). For the same molecule, in series [5], the “effect on skin DPD activity” value is “temporary and recoverable inhibition”.
On to `CCCCCOC(=O)Nc1nc(=O)n([C@@H]2O[C@H](C)[C@@H](O)[C@H]2O)cc1F` [capecitabine, 5′-deoxy-5-fluoro-N-[(pentyloxy)carbonyl]-cytidine], for which, in series [6], the “reported incidence of HFS, all grades” value is “approximately 60%” and the “reported incidence of HFS, high grade” value is recorded as around 17%.
With `Cc1cn([C@H]2C[C@H](O)[C@@H](CO)O2)c(=O)[nH]c1=O` [thymidine], the “inhibition of TP activity” value in series [7] is given as “about 50%”.
On the same count and under the same terms, under `O=c1ccn([C@@H]2O[C@H](CO)[C@@H](O)[C@H]2O)c(=O)[nH]1` [uridine] stands “about 50%”.

In general, half-life refers to the time in which the quantity being followed falls by half.
